Like-named read-outs stand apart in the source and are kept apart here.

Series [1] in a line: logP by HPLC on reversed-phase columns (C 18), EEC Directive 79/831 Annex V.A8. It is filed as physicochemical. The note with it: reversed-phase C 18, acidic range pH 2.7; for chromatographic logP: reversed-phase HPLC column (C 18), pH 2.7, HPLC. As for the experimental part:
The logP values reported in the table above and in the Preparation Examples were determined in accordance with EEC Directive 79/831 Annex V.A8 by HPLC (High Performance Liquid Chromatography) on reversed-phase columns (C 18), with the following methods: The LC-MS determination in the acidic range is carried out at pH 2.7 using the mobile phases 0.1% aqueous formic acid and acetonitrile (contains 0.1% formic acid), linear gradient from 10% acetonitrile to 95% acetonitrile Calibration was carried out using unbranched alkan-2-ones (having from 3 to 16 carbon atoms) with known logP values (the logP values were determined by the retention times using linear interpolation between two successive alkanones).

In another series the test system is Spodoptera frugiperda. Kind of series: Spodoptera frugiperda test (SPODFR spray treatment). It is filed as in vivo. The note with it: foliar, 168 h, sprayed maize leaf discs, after 7 days, read-out: effect in % (caterpillars killed). Here is the method: Solvents: 78.0 parts by weight of acetone 1.5 parts by weight of dimethylformamide Emulsifier: 0.5 part by weight of alkylaryl polyglycol ether To produce a suitable preparation of active compound, 1 part by weight of active compound is mixed with the stated amount of solvents and emulsifier, and the concentrate is diluted with emulsifier-containing water to the desired concentration. Discs of maize leaves (Zea mays) are sprayed with an active compound preparation of the desired concentration and, after drying, populated with caterpillars of the armyworm (Spodoptera frugiperda). After 7 days, the effect in % is determined 100% means that all caterpillars have been killed; 0% means that none of the caterpillars have been killed.

[2] abbreviates: table of compounds, read-out: log P.

`Cc1cc(Cl)cc2c(=O)oc(-c3cnc(Cn4nnc(C(F)(F)F)n4)nc3-c3ccccc3Cl)nc12` [6-chloro-2-[4-(2-chlorophenyl)-2-{[5-(trifluoromethyl)-2H-tetrazol-2-yl]methyl}pyrimidin-5-yl]-8-methyl-4H-3,1-benzoxazin-4-one]: the chromatographic logP in series [1] (Preparation Examples) came to 5.16. Consider `CNC(=O)c1cc(Br)cc(C)c1NC(=O)c1nc(Cn2nnc(C(F)(F)F)n2)sc1-c1ccccc1Cl` [Compound 1], for which the chromatographic logP in series [1] (setting [2]) stood at 3.98. Take `Cc1cc(Cl)cc(C(=O)NC(C)C)c1NC(=O)c1nc(Cn2nnc(C(F)(F)F)n2)sc1-c1ccccc1Cl` [Compound 2]: in series [1] (setting [2]), the chromatographic logP was determined as 4.34. The same measure, in the same setting: for `CNC(=O)c1cc(Cl)cc(C)c1NC(=O)c1cn(Cc2ccc(C(F)(F)F)nc2)nc1-c1ccccc1Cl` [Compound 4] the value was 3.12; for `Cc1cc(Br)cc(C(=O)NC(C)C)c1NC(=O)c1nc(Cn2nnc(C(F)(F)F)n2)sc1-c1ccccc1Cl` [Compound 5], 4.48; for `CNC(=O)c1cc(C#N)cc(C)c1NC(=O)c1nc(Cn2nnc(C(F)(F)F)n2)oc1-c1ccccc1Cl` [Compound 6], 3.25.

For `Cc1cc(C#N)cc(C(=O)NC(C)(C)C)c1NC(=O)c1nc(Cn2nnc(C(F)(F)F)n2)oc1-c1ccccc1Cl` [Compound 7], the chromatographic logP in series [1] (setting [2]) turned out to be 3.95. Turning to `CNC(=O)c1cc(C#N)cc(C)c1NC(=O)c1sc(Cn2nnc(C(F)(F)F)n2)nc1-c1ccccc1Cl` [Compound 14], in series [1] (setting [2]), the chromatographic logP was found to be 3.19. For the same compound, the pest or weed control at 100 g/ha with Spodoptera frugiperda was 100%. For the compound `Cc1cc(C#N)cc(C(=O)NC(C)C)c1NC(=O)c1nc(Cn2nnc(C(F)(F)F)n2)oc1-c1ccccc1Cl` [Compound 15], the chromatographic logP in series [1] (setting [2]) was found to be 3.69. On the same count and under the same terms, the figure for `CNC(=O)c1cc(Cl)cc(C)c1NC(=O)c1nc(Cn2nnc(C(F)(F)F)n2)oc1-c1ccccc1Cl` [Compound 16] is 3.65; for `Cc1cc(Cl)cc(C(=O)NC(C)(C)C)c1NC(=O)c1nc(Cn2nnc(C(F)(F)F)n2)oc1-c1ccccc1Cl` [Compound 18] it is 4.46; for `Cc1cc(Cl)cc(C(=O)NC(C)C)c1NC(=O)c1nc(Cn2nnc(C(F)(F)F)n2)oc1-c1ccccc1Cl` [Compound 19] it is 4.11.

On to `Cc1cc(Cl)cc(C(N)=O)c1NC(=O)c1nc(Cn2nnc(C(F)(F)F)n2)oc1-c1ccccc1Cl` [Compound 20], for which the chromatographic logP in series [1] (setting [2]) was 3.45. The same measure, in the same setting: for `CNC(=O)c1cc(Br)cc(C)c1NC(=O)c1nc(Cn2nnc(C(F)(F)F)n2)oc1-c1ccccc1Cl` [Compound 21] the value was 3.72; for `Cc1cc(Br)cc(C(=O)NC(C)(C)C)c1NC(=O)c1nc(Cn2nnc(C(F)(F)F)n2)oc1-c1ccccc1Cl` [Compound 22], 4.52; for `Cc1cc(Br)cc(C(=O)NC(C)C)c1NC(=O)c1nc(Cn2nnc(C(F)(F)F)n2)oc1-c1ccccc1Cl` [Compound 23], 4.21. Regarding `CNC(=O)c1cc(C#N)cc(C)c1NC(=O)c1nc(Cn2nnc(C(F)(F)F)n2)sc1-c1ccccc1Cl` [Compound 24], in series [1] (setting [2]), the chromatographic logP amounted to 3.46. Same read-out and setting: the figure for `Cc1cc(C#N)cc(C(=O)NC(C)(C)C)c1NC(=O)c1nc(Cn2nnc(C(F)(F)F)n2)sc1-c1ccccc1Cl` [Compound 28] is 4.29; for `Cc1cc(Br)cc(C(=O)NC(C)(C)C)c1NC(=O)c1nc(Cn2nnc(C(F)(F)F)n2)sc1-c1ccccc1Cl` [Compound 29] it is 4.83. Consider `CNC(=O)c1cc(C#N)cc(C)c1NC(=O)c1cn(Cc2ccc(C(F)(F)F)nc2)nc1-c1ccccc1Cl` [Compound 31], for which the “log P” value in series [1] (HPLC, table of compounds) is listed as 2.83. The chromatographic logP in series [1] (setting [2]) worked out at 2.78. For the same compound, the pest or weed control at 100 g/ha in the series with Spodoptera frugiperda was 100%. For `CNC(=O)c1cc(C#N)cc(C)c1NC(=O)c1cc(C(=O)Cn2nnc(C(F)(F)F)n2)cn1-c1ncccc1Cl` [Compound 33], the chromatographic logP in series [1] (setting [2]) is 2.75. As for `O=C(O)c1cnc(Cn2nnc(C(F)(F)F)n2)nc1-c1ccccc1Cl` [Example No. (IV-1), 4-(2-chlorophenyl)-2-[5-(trifluoromethyl)-2H-tetrazol-2-yl]methylpyrimidine-5-carboxylic acid], the chromatographic logP in series [1] (Preparation Examples) was determined as 2.5. Same read-out and setting: for `CCOC(=O)c1cnc(CBr)nc1-c1ccccc1Cl` [Example No. (IX), ethyl 2-(bromomethyl)-4-(2-chlorophenyl)pyrimidine-5-carboxylate] the value was 3.32; for `CCOC(=O)c1cnc(Cn2nnc(C(F)(F)F)n2)nc1-c1ccccc1Cl` [Example No. (X), ethyl 4-(2-chlorophenyl)-2-[5-(trifluoromethyl)-2H-tetrazol-2-yl]methylpyrimidine-5-carboxylate], 3.56; for `O=C(Cn1nnc(C(F)(F)F)n1)c1cc(C(=O)O)n(-c2ncccc2Cl)c1` [Example No. IV-3, 1-(3-chloropyridin-2-yl)-4-{[5-(trifluoromethyl)-2H-tetrazol-2-yl]acetyl}-1H-pyrrole-2-carboxylic acid], 2.24. The same measure, in the same setting: the figure for `O=C(O)c1sc(Cn2nnc(C(F)(F)F)n2)nc1-c1ccccc1Cl` [Example No. X (IV-2), 4-(2-chlorophenyl)-2-{[5-(trifluoromethyl)-2H-tetrazol-2-yl]methyl}-1,3-thiazole-5-carboxylic acid] is 2.63.

`COC(=O)c1sc(CBr)nc1-c1ccccc1Cl` [Example No. XII, methyl 2-(bromomethyl)-4-(2-chlorophenyl)-1,3-thiazole-5-carboxylate] showed a chromatographic logP in series [1] (Preparation Examples) of 4.12. Same read-out and setting: for `COC(=O)c1sc(Cn2nnc(C(F)(F)F)n2)nc1-c1ccccc1Cl` [Example No. XIII, methyl 4-(2-chlorophenyl)-2-{[5-(trifluoromethyl)-2H-tetrazol-2-yl]methyl}-1,3-thiazole-5-carboxylate] the value was 3.6; for `COC(=O)c1cc(C(C)=O)cn1-c1ncccc1Cl` [Example No. XV, methyl 4-acetyl-1-(3-chloropyridin-2-yl)-1H-pyrrole-2-carboxylate], 1.74. Same read-out and setting: for `COC(=O)c1cc(C(=O)CBr)cn1-c1ncccc1Cl` [Example No. XVI, methyl 4-(bromoacetyl)-1-(3-chloropyridin-2-yl)-1H-pyrrole-2-carboxylate] the value was 2.28. The same measure, in the same setting: the figure for `COC(=O)c1cc(C(=O)Cn2nnc(C(F)(F)F)n2)cn1-c1ncccc1Cl` [Example No. XVII, methyl 1-(3-chloropyridin-2-yl)-4-{[5-(trifluoromethyl)-2H-tetrazol-2-yl]acetyl}-1H-pyrrole-2-carboxylate] is 2.97; for `CNC(=O)c1cc(Cl)cc(C)c1NC(=O)c1cnc(Cn2nnc(C(F)(F)F)n2)nc1-c1ccccc1Cl` [N-[4-chloro-2-methyl-6-(methylcarbamoyl)phenyl]-4-(2-chlorophenyl)-2-{[5-(trifluoromethyl)-2H-tetrazol-2-yl]methyl}pyrimidine-5-carboxamide] it is 3.13.

For orientation: log P means the decadic logarithm of the partition coefficient of the neutral form, usually between octanol and water. A higher log P goes with higher lipophilicity.

These data come from patent publication US8980886B2, “Anthranilic acid derivatives” (Bayer Cropscience AG, priority 2010, dated 2015).
